Patent publication US8003659B2, “Macrocyclic serine protease inhibitors” (Indenix Pharmaceuticals, Inc., priority 2008, dated 2011)

Experiments:
HCV NS3-NS4A protease = target: T1, HCV NS3-NS4A protease (Hepatitis C virus genotype 1b, UniProt P26663); assay: HCV Protease Assay (SensoLyte 620 HCV Protease Assay kit); type: biochemical; conditions: 1.2 nM HCV NS3-NS4A protease, 60 min at room temperature, 5% DMSO
T1 construct: made in house
Experimental: General procedure: Measurement of the inhibitory effect of compounds on HCV protease activity was performed with the SensoLyte™ 620 HCV Protease Assay kit from AnaSpec, Inc. (San Jose, Calif.) under conditions described by the supplier using 1.2 nM HCV NS3-NS4A protease, which was obtained according to Taremi et al. (Protein Science, 1998, 7, 2143-2149). The compounds were tested at a variety of concentrations in assay buffer containing a final DMSO concentration of 5%. Reactions were allowed to proceed for 60 min at room temperature and fluorescence measurements were recorded with a Tecan Infinity Spectrofluorimeter. The IC50 values were determined from the percent inhibition versus concentration data using a sigmoidal non-linear regression analysis based on four parameters with Tecan Magellan software.

[1] = test system: Huh-7 cells containing HCV Con1 subgenomic replicon (GS4.1 cells); assay: HCV Replicon Assay (NS4A ELISA); type: cell-based; conditions: Hepatitis C virus, Huh-7, 72 hr, NS4A protein by ELISA
Experimental: General procedure: Huh-7 cells containing HCV Con1 subgenomic replicon (GS4.1 cells) were grown in Dulbecco's Modified Eagle Medium (DMEM) supplemented with 10% fetal bovine serum (FBS), 2 mM L-glutamine, 110 mg/L sodium pyruvate, 1× non-essential amino acids, 100 U/mL penicillin-streptomycin, and 0.5 mg/mL G418 (Invitrogen). For dose-response testing, the cells were seeded in 96-well plates at 7.5×10^3 cells/well in a volume of 50 μL, and incubated at 37° C./5% CO2. Three hours after plating, 50 μL of ten 2-fold serial dilutions of compounds (highest concentration, 75 μM) were added, and cell cultures were incubated at 37° C./5% CO2 in the presence of 0.5% DMSO. Alternatively, compounds were tested at a single concentration of 15 μM. In all cases, Huh-7 cells lacking the HCV replicon served as negative control. The cells were incubated in the presence of compounds for 72 hr after which they were monitored for expression of the NS4A protein by enzyme-linked immunosorbent assay (ELISA). For this, the plates were then fixed for 1 min with acetone/methanol (1:1, v/v), washed twice with phosphate-buffered saline (PBS), 0.1% Tween 20, blocked for 1 hr at room temperature with TNE buffer containing 10% FBS and then incubated for 2 hr at 37° C. with the anti-NS4A mouse monoclonal antibody A-236 (ViroGen) diluted in the same buffer. After washing three times with PBS, 0.1% Tween 20, the cells were incubated 1 hr at 37° C. with anti-mouse immunoglobulin G-peroxidase conjugate in TNE, 10% FBS. After washing as described above, the reaction was developed with O-phenylenediamine (Zymed). The reaction was stopped after 30 min with 2 NH2SO4, and absorbance was read at 492 nm using Sunrise Tecan spectrophotometer. EC50 values were determined from the % inhibition versus concentration data using a sigmoidal non-linear regression analysis based on four parameters with Tecan Magellan software. When screening at a single concentration, the results were expressed as % inhibition at 15 μM.

[2] = Cytotoxicity evaluation (Cell Titer 96 AQueous One Solution Cell Proliferation Assay); type: cell-based; conditions: human; GS4.1 cells, cellular viability
Experimental: For cytotoxicity evaluation, GS4.1 cells were treated with compounds as described above and cellular viability was monitored using the Cell Titer 96 AQueous One Solution Cell Proliferation Assay (Promega). CC50 values were determined from the % cytotoxicity versus concentration data with Tecan Magellan software as described above.

T1 sequence (P26663 1027-1208): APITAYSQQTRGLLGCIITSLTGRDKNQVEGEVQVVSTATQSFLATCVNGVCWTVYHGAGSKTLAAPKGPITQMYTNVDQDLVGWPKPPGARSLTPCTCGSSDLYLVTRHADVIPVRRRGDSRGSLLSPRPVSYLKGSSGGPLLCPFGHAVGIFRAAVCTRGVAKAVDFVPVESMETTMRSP

| SMILES | IC50 (HCV NS3-NS4A protease) [µM] | EC50 [1] [µM] | CC50 [2] [µM] |
| --- | --- | --- | --- |
| COc1ccc2c(O[C@H]3C[C@H]4C(=O)N(C)CCCC/C=C\[C@@H]5C[C@@]5(C(=O)NS(=O)(=O)C5(C)CC5)NC(=O)N4C3)cc(-c3nc(C4CCC4)cs3)nc2c1Cl [AC3, (Z)-(4R,6S,15S,17S)-[17-[8-chloro-7-methoxy-2-(4-cyclobutylthiazol-2-yl)quinolin-4-yloxy]-13-N-methyl-2,14-dioxo-1,3,13-triazatricyclo-[13.3.0.0]octadec-7-en-4-yl]carbonyl-(1-methylcyclopropyl)sulfonamide] | < 1 | < 1 | > 75 |
| COc1cc(OC)c2c(O[C@H]3C[C@H]4C(=O)N(C)CCCC/C=C\[C@@H]5C[C@@]5(C(=O)NS(=O)(=O)C5(C)CC5)NC(=O)N4C3)cc(-c3nc(C(C)C)cs3)nc2c1 [Compound 56e, (Z)-(4R,6S,15S,17S)-[17-[5,7-dimethoxy-2-(4-isopropylthiazol-2-yl)quinolin-4-yloxy]-13-N-methyl-2,14-dioxo-1,3,13-triazatricyclo[13.3.0.0]octadec-7-en-4-yl]carbonyl(1-methyl-cyclopropyl)sulfonamide] | < 1 | 1 to 10 | > 75 |
| COc1ccc2c(O[C@H]3C[C@H]4C(=O)N(C)CCCC/C=C\[C@@H]5C[C@@]5(C(=O)NS(=O)(=O)C5(C)CC5)NC(=O)N4C3)cc(-c3nc(C(C)C)cs3)nc2c1 [Compound 56a, (Z)-(4R,6S,15S,17S)-[17-[7-methoxy-2-(4-isopropylthiazol-2-yl)quinolin-4-yloxy]-13-N-methyl-2,14-dioxo-1,3,13-triazatricyclo-[13.3.0.0]octadec-7-en-4-yl]carbonyl(1-methyl-cyclopropyl)sulfonamide] | < 1 | < 1 | > 75 |
| COc1ccc2c(O[C@H]3C[C@H]4C(=O)N(C)CCCC/C=C\[C@@H]5C[C@@]5(C(=O)NS(=O)(=O)C5(C)CC5)NC(=O)N4C3)cc(-c3nc(C(C)C)cs3)nc2c1F [Compound 56c, (Z)-(4R,6S,15S,17S)-[17-[8-fluoro-7-methoxy-2-(4-isopropylthiazol-2-yl)quinolin-4-yloxy]-13-N-methyl-2,14-dioxo-1,3,13-triazatricyclo[13.3.0.0]octadec-7-en-4-yl]carbonyl(1-methyl-cyclopropyl)sulfonamide] | < 1 | < 1 | > 75 |
| COc1cc2c(O[C@H]3C[C@H]4C(=O)N(C)CCCC/C=C\[C@@H]5C[C@@]5(C(=O)NS(=O)(=O)C5(C)CC5)NC(=O)N4C3)cc(-c3nc(C(C)C)cs3)nc2cc1Cl [Compound 56g, (Z)-(4R,6S,15S,17S)-[17-[7-chloro-6-methoxy-2-(4-isopropylthiazol-2-yl)quinolin-4-yloxy]-13-N-methyl-2,14-dioxo-1,3,13-triazatricyclo[13.3.0.0]octadec-7-en-4-yl]carbonyl(1-methyl-cyclopropyl)sulfonamide] | < 1 | < 1 | > 75 |
| COc1ccc2c(O[C@H]3C[C@H]4C(=O)N(C)CCCC/C=C\[C@@H]5C[C@@]5(C(=O)NS(C)(=O)=O)NC(=O)N4C3)cc(-c3nc(C(C)C)cs3)nc2c1C [Compound 63b] | < 1 | 1 to 10 | > 75 |
| C#Cc1csc(-c2cc(O[C@H]3C[C@H]4C(=O)N(C)CCCC/C=C\[C@@H]5C[C@@]5(C(=O)NS(=O)(=O)C5CC5)NC(=O)N4C3)c3ccc(OC)c(C)c3n2)n1 [Compound G3, (Z)-(4R,6S,15S,17S)-[17-[7-methoxy-8-methyl-2-(4-ethynylthiazol-2-yl)quinolin-4-yloxy]-13-N-methyl-2,14-dioxo-1,3,13-triazatricyclo-[13.3.0.0]octadec-7-en-4-yl]carbonyl(cyclopropyl)sulfonamide] | < 1 | < 1 | 10 to 75 |
| COc1ccc2c(O[C@H]3C[C@H]4C(=O)N(C)CCCC/C=C\[C@@H]5C[C@@]5(C(=O)NS(=O)(=O)C5(C)CC5)NC(=O)N4C3)cc(-n3ccc(C(F)(F)F)n3)nc2c1C [Compound 91c, (Z)-(4R,6S,15S,17S)-[17-[7-methoxy-8-methyl-2-(3-trifluoromethyl-1H-pyrazol-1-yl)quinolin-4-yloxy]-13-N-methyl-2,14-dioxo-1,3,13-triazatricyclo[13.3.0.0]octadec-7-ene-4-yl]carbonyl(1-methylcyclopropyl)sulfonamide] | < 1 | < 1 | > 75 |
| COc1ccc2c(O[C@H]3C[C@H]4C(=O)N(C)CCCC/C=C\[C@@H]5C[C@@]5(C(=O)NS(=O)(=O)C5(C)CC5)NC(=O)N4C3)nc(-c3nc(C(C)C)cs3)nc2c1Cl [Compound 110d, (Z)-(4R,6S,15S,17S)-[17-[8-chloro-7-methoxy-2-(4-isopropylthiazol-2-yl)quinazolin-4-yloxy]-13-N-methyl-2,14-dioxo-1,3,13-triazatricyclo[13.3.0.0]octadec-7-ene-4-yl]carbonyl(1-methylcyclopropyl)sulfonamide] | < 1 | < 1 | > 75 |
| COc1ccc2c(O[C@H]3C[C@H]4C(=O)N(C)CCCC/C=C\[C@@H]5C[C@@]5(C(=O)NS(=O)(=O)C5(C)CC5)NC(=O)N4C3)cc(-c3csc(C(C)C)n3)nc2c1Cl [Compound 101d, (Z)-(4R,6S,15S,17S)-[17-[8-chloro-7-methoxy-2-(2-isopropythiazol-4-yl)quinolin-4-yloxy]-13-N-methyl-2,14-dioxo-1,3,13-triazatricyclo[13.3.0.0]octadec-7-ene-4-yl]carbonyl(1-methylcyclopropyl)sulfonamide] | < 1 | < 1 | > 75 |
| COc1ccc2c(O[C@H]3C[C@H]4C(=O)N(C)CCCC/C=C\[C@@H]5C[C@@]5(C(=O)NS(=O)(=O)C5CC5)NC(=O)N4C3)cc(-c3csc(C(F)(F)F)n3)nc2c1Cl [Compound O1, (Z)-(4R,6S,15S,17S)-[17-[8-chloro-7-methoxy-2-(2-trifluoromethylthiazol-4-yl)quinolin-4-yloxy]-13-N-methyl-2,14-dioxo-1,3,13-triazatricyclo-[13.3.0.0]octadec-7-en-4-yl]carbonyl-(cyclopropyl)sulfonamide] | < 1 | < 1 | 10 to 75 |
| COc1ccc2c(O[C@H]3C[C@H]4C(=O)N(C)CCCC/C=C\[C@@H]5C[C@@]5(C(=O)NS(=O)(=O)C5CC5)NC(=O)N4C3)cc(-c3nc(C(C)C)cs3)nc2c1C [Compound 62b, (Z)-(4R,6S,15S,17S)-[17-[7-methoxy-8-methyl-2-(4-isopropylthiazol-2-yl)quinolin-4-yloxy]-13-N-methyl-2,14-dioxo-1,3,13-triazatricyclo[13.3.0.0]octadec-7-en-4-yl]carbonyl(cyclopropyl)sulfonamide] | < 1 | < 1 | > 75 |
| COc1ccc2c(O[C@H]3C[C@H]4C(=O)N(C)CCCC/C=C\[C@@H]5C[C@@]5(C(=O)NS(=O)(=O)C5CC5)NC(=O)N4C3)cc(-c3nc(C4CC4)cs3)nc2c1Cl [AC1, (Z)-(4R,6S,15S,17S)-[17-[8-chloro-7-methoxy-2-(4-cyclopropylthiazol-2-yl)quinolin-4-yloxy]-13-N-methyl-2,14-dioxo-1,3,13-triazatricyclo-[13.3.0.0]octadec-7-en-4-yl]carbonyl-(cyclopropyl)sulfonamide] | < 1 | < 1 | 10 to 75 |
| COc1ccc2c(O[C@H]3C[C@H]4C(=O)N(C)CCCC/C=C\[C@@H]5C[C@@]5(C(=O)NS(=O)(=O)C5CC5)NC(=O)N4C3)cc(-c3nc(C)cs3)nc2c1Cl [AN, (Z)-(4R,6S,15S,17S)-[17-[8-chloro-7-methoxy-2-(4-methylthiazol-4-yl)quinolin-4-yloxy]-13-N-methyl-2,14-dioxo-1,3,13-triazatricyclo-[13.3.0.0]octadec-7-en-4-yl]carbonyl-(cyclopropyl)sulfonamide] | < 1 | < 1 | 10 to 75 |
